According to ChEMBL document CHEMBL5729664, “Substituted pyridine derivatives as SARM1 inhibitors” (2023):
pIC50: −log10 of the molar value.

assay: Biological Assay: Each reaction was run at a volume of 20 μL containing 50 μM compound (dissolved in DMSO; final concentration of DMSO is 1% v/v), 40 nM human SARM1 (50-724), 0.3 mM NMN, 20 μM NAD, 1 mM TCEP, 25 mM HEPES pH 7.4, 10 mM KCl and 10 mM MgCl2. The reaction was incubated at room temperature for 60 minutes and quenched with 20 μL of 0.4% formic acid. The samples were run on Agilent HPLC 1260 Infinity II with Synergi 2.5 μM Fusion-RP 100 Å (100×3.0 mm) LC column from Phenomenex. Total run time for each sample was 4 minutes. The run was isocratic with 1.5% methanol in 40 mM ammonium acetate pH 6.0. Samples were run at a flow rate of 0.8 ml/min at 55° C. Peak areas of NAD and NAM were determined using OpenLAB CDS (Chem Station edition) software. For dose-response, the compound was diluted serially 1:3 in DMSO and added to the reaction starting at a final compound concentration of 100 μM in 1% DMSO.

Row | pIC50 | IC50 | SMILES
1 | > 6.00 | – | O[C@H](c1ncc(Cc2ccncc2)[nH]1)C(F)(F)F
2 | > 6.00 | – | OC(c1nc(Cc2ccncc2Cl)c[nH]1)C(F)(F)F (stereo not drawn)
3 | – | in the range around 55 µM | Cc1cnccc1Cc1cnc([C@@H](O)c2cncs2)[nH]1 (single isomer, unassigned)
4 | > 6.00 | – | O[C@@H](c1ncc(Cc2ccncc2)[nH]1)C(F)(F)F
5 | > 6.00 | – | N[C@@H](c1nc(Cc2ccncc2)c[nH]1)C(F)(F)F
6 | > 6.00 | – | O[C@@H](c1nc(Cc2ccncc2)c[nH]1)c1cncs1
7 | – | in the range around 55 µM | CN(C)C(c1ncc(Cc2ccncc2)[nH]1)C(F)(F)F (stereo not drawn)
8 | – | in the range around 5.5 µM | CC(O)(c1nc(Cc2ccncc2)c[nH]1)C(F)(F)F (stereo not drawn)
9 | – | in the range around 5.5 µM | CN[C@@H](c1ncc(Cc2ccncc2)[nH]1)C(F)(F)F
10 | > 6.00 | – | C[C@H](c1ccncc1)c1c[nH]c(CC(F)(F)F)n1
11 | – | in the range around 55 µM | NC(c1nc(Cc2ccncc2)cs1)C(F)(F)F (stereo not drawn)
12 | – | in the range around 55 µM | OC(c1ncc(Cc2ccncc2)[nH]1)(c1cncs1)C(F)(F)F (stereo not drawn)
13 | – | in the range around 5.5 µM | CC(c1ccncc1)c1ccc(CC(F)(F)F)[nH]1 (stereo not drawn)
14 | > 6.00 | – | OC(C1N=CC(Cc2ccncc2F)=N1)C(F)(F)F (stereo not drawn)
15 | > 6.00 | – | Cc1cnccc1Cc1c[nH]c([C@H](O)C(F)(F)F)n1
16 | > 6.00 | – | C[C@@H](c1ccncc1)c1c[nH]c([C@@H](O)C(F)(F)F)n1
17 | – | in the range around 5.5 µM | CNC(c1ncc(Cc2ccncc2)[nH]1)C(F)(F)F (stereo not drawn)
18 | – | in the range around 5.5 µM | OC(c1ccccn1)c1ncc(Cc2ccncc2)[nH]1 (stereo not drawn)
19 | – | in the range around 5.5 µM | COC(c1ncc(Cc2ccncc2)[nH]1)C(F)(F)F (stereo not drawn)
20 | – | in the range around 5.5 µM | O[C@H](C1N=CC(Cc2ccncc2F)=N1)C(F)(F)F (stereo partly drawn)
21 | – | in the range around 5.5 µM | O[C@H](c1ncc(Cc2ccncc2)[nH]1)c1nccs1
22 | – | in the range around 55 µM | C[C@@H](c1ccncc1)c1c[nH]c([C@H](O)C(F)(F)F)n1
23 | > 6.00 | – | CC(c1ccncc1)c1c[nH]c(CC(F)(F)F)n1 (stereo not drawn)
